In PubChem BioAssay (NCI):
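Interpolation was linear, between the two tested concentrations surrounding the appropriate level; five concentrations were tested over 48 hours in 96-well plates. TGI: total growth inhibition.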

Tests used:
Assay in all cases: NCI tumour cell line growth inhibition, 48 h
[1] = system: NCI/ADR-RES ovarian
[2] = system: P388/ADR leukemia
[3] = system: XF 498 CNS
[4] = system: M19-MEL melanoma
[5] = system: SN12K1 renal
[6] = system: P388 leukemia
[7] = system: SR leukemia
[8] = system: MDA-MB-231 breast
[9] = system: MDA-N
[10] = system: BT-549 breast

Row | SMILES | TGI [1] [µM] | TGI [2] [µM] | TGI [3] [µM] | TGI [4] [µM] | TGI [5] [µM] | TGI [6] [µM] | TGI [7] [µM] | TGI [8] [µM] | TGI [9] [µM] | TGI [10] [µM]
1 | CC(NC(=O)C(C)NC(=O)C(N)CCP(C)(=O)O)C(=O)O (stereo unspecified) | > 100 | > 100 | > 100 | > 100 | > 100 | > 31.6 | – | – | – | –
2 | Nc1nc(SCc2ccc([N+](=O)[O-])cc2)nc2c1ncn2C1OC(COP(=O)(O)O)C(O)C1O (stereo unspecified) | – | – | > 100 | – | – | – | > 100 | – | – | –
3 | CC(C)OP(=O)(OC(C)C)/C(I)=N/Nc1ccc([N+](=O)[O-])cc1 | – | – | > 100 | > 100 | – | – | > 100 | – | – | –
4 | Cc1ccc(N=N/C(=N\NC(=O)c2ccc(C)cc2)c2ccc(N(CCC#N)CCC#N)cc2C)cc1 | > 100 | – | – | – | – | – | > 100 | > 100 | > 100 | –
5 | Cc1ccc(N2Cc3c(ccc4ccccc34)OP2(=O)Oc2ccc(Cl)c(C)c2)cc1 (stereo unspecified) | > 100 | > 100 | > 100 | > 100 | > 100 | > 100 | – | – | – | –
6 | CC1=Nc2nc(Cl)cn2C(=O)C1(Cl)Cl | > 10 | – | – | – | – | – | > 10 | > 10 | > 10 | –
7 | COc1ccc(-n2cnnc2-c2nsc3ccccc23)cc1 | – | – | – | > 100 | – | – | > 100 | – | – | –
8 | C[Si](C)(OCCS(=O)(=O)O)C1(Cc2cccc3ccccc23)S(=O)(=O)OCCOS1(=O)=O | > 100 | – | – | – | – | – | – | 43.3 | 41.9 | 33.5
